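Abbreviation: GI50, concentration required for 50% inhibition of growth. TGI: concentration producing complete growth inhibition.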
Key:
Test in all cases: growth of human tumour cells (NCI), 384-well format
[1] = test system: 786-0 renal
[2] = test system: A498 renal
[3] = test system: A549 NSCLC
[4] = test system: ACHN renal
[5] = test system: BT-549 breast
[6] = test system: CAKI-1 renal
[7] = test system: CCRF-CEM leukemia
[8] = test system: COLO 205 colon
[9] = test system: DU-145 prostate
[10] = test system: HCC-2998 colon
[11] = test system: HCT-116 colon
[12] = test system: HCT-15 colon
[13] = test system: HL-60(TB) leukemia
[14] = test system: HOP-62 NSCLC
[15] = test system: HOP-92 NSCLC
[16] = test system: HT29 colon
[17] = test system: IGROV1 ovarian
[18] = test system: KM12 colon
[19] = test system: LOX IMVI melanoma
[20] = test system: M14 melanoma
[21] = test system: MALME-3M melanoma
[22] = test system: MCF7 breast
[23] = test system: MDA-MB-231 breast
[24] = test system: MDA-MB-435 melanoma
[25] = test system: MDA-MB-468 breast
[26] = test system: MOLT-4 leukemia
[27] = test system: NCI-H226 lung
[28] = test system: NCI-H23 lung

## Cc1ncc(NC(=O)c2ccc(CN3CCN(C)CC3)c(C(F)(F)F)c2)cc1Nc1nccc(-c2cccnc2)n1
[1]
  GI50: 1.51 µM
  TGI: 2.89 µM
[2]
  GI50: 1.89 µM
  TGI: 3.55 µM
[3]
  GI50: 2.54 µM
  TGI: 8.6 µM
[4]
  GI50: 12.6 µM
  TGI: 25.2 µM
[5]
  GI50: 2.17 µM
  TGI: 3.69 µM
[6]
  GI50: 7.3 µM
  TGI: 19.4 µM
[7]
  GI50: 1.61 µM
  TGI: 2.96 µM
[8]
  GI50: 1.27 µM
  TGI: 14.5 µM
[9]
  GI50: 15.4 µM
  TGI: 28.8 µM
[10]
  GI50: 3.72 µM
  TGI: 17.6 µM
[11]
  GI50: 1.18 µM
  TGI: 2.43 µM
[12]
  GI50: 1.82 µM
  TGI: 3.6 µM
[13]
  GI50: 0.956 µM
  TGI: 2.12 µM
[14]
  GI50: 13.8 µM
  TGI: 26.8 µM
[15]
  GI50: 6.68 µM
  TGI: 19.4 µM
[16]
  GI50: 1.04 µM
  TGI: 2.22 µM
[17]
  GI50: 13.2 µM
  TGI: 26 µM
[18]
  GI50: 1.57 µM
  TGI: 3.11 µM
[19]
  GI50: 1.95 µM
  TGI: 3.37 µM
[20]
  GI50: 0.798 µM
  TGI: 12.3 µM
[21]
  GI50: 0.289 µM
  TGI: 1.46 µM
[22]
  GI50: 1.43 µM
  TGI: 2.79 µM
[23]
  GI50: 1.55 µM
  TGI: 2.98 µM
[24]
  GI50: 4.56 µM
  TGI: 19.2 µM
[25]
  GI50: 10.8 µM
  TGI: 22.8 µM
[26]
  GI50: 1.28 µM
  TGI: 2.54 µM
[27]
  GI50: 12.4 µM
  TGI: 25 µM
[28]
  GI50: 13.7 µM
  TGI: 26.7 µM

— PubChem BioAssay (NCI)
